Source: patent US11000033B2, “Ketone or oxime compound, and herbicide” (NISSAN CHEMICAL CORPORATION, priority 2014, dated 2021)

Columns and labels:
Assay type in all cases: in vivo
[1] = tested on: Monochoria vaginalis; assay: Test Example 1: herbicidal activity, application before weed generation in submerged conditions (symbol C); details: application herbicide amount 320 g/ha
Method in brief: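 Compound emulsion was diluted to a set herbicide amount and applied to the water surface on the sowing day, into submerged (4 cm) alluvial-soil pots sown with mixed weed seeds and transplanted 2.5-leaf rice. Pots were held in a 25–30 °C greenhouse, and weeds were scored 0–5 by herbicidal ratio after 3 weeks.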

[2] = tested on: Chenopodium album; assay: Test Example 4: herbicidal effect by soil treatment (symbol O); details: application herbicide amount 320 g/ha
Method in brief: (§1)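 Seeds were sown in sterilized diluvial soil, covered with about 1.5 cm of soil, and the soil surface was sprayed with a water-diluted emulsion of the compound at a predetermined rate. Plants grew in a greenhouse at 25° C. to 30° C.; effects were scored visually 3 weeks after application.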

[3] = tested on: Setaria viridis; assay: Test Example 4: herbicidal effect by soil treatment (symbol G); details: application herbicide amount 320 g/ha
Method in brief: as §1

[4] = tested on: Stellaria media; assay: Test Example 4: herbicidal effect by soil treatment (symbol P); details: application herbicide amount 320 g/ha
Method in brief: as §1

[5] = tested on: Apera spica-venti; assay: Test Example 4: herbicidal effect by soil treatment (symbol L); details: application herbicide amount 320 g/ha
Method in brief: as §1

[6] = tested on: rice plant; assay: Test Example 5: effect on crop by foliage application, plastic box (symbol b); details: 320 g/ha, 3 weeks after application
Method in brief: (§2)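 Foliage-application test plants come from spot sowing in sterilized diluvial soil under a soil layer of about 1.5 cm, grown at 25° C. to 30° C. in a greenhouse.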

[7] = tested on: Echinochloa oryzacola Vasing.; assay: Test Example 2: herbicidal activity, application during weed generation in submerged conditions (symbol A); details: Table 23; application herbicide amount 320 g/ha; grade 0-5 by criteria of Test Example 1
Method in brief: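 Compound was applied as a water-diluted emulsion into the standing water of flooded pots (4 cm) once co-sown weeds reached one to two leaves. Greenhouse temperature was 25° C. to 30° C., soil was alluvial, and each species was rated visually after 3 weeks.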

[8] = tested on: beet; assay: Test Example 5: effect on crop by foliage application, plastic box (symbol f); details: 320 g/ha, 3 weeks after application
Method in brief: as §2

[9] = tested on: Chenopodium album; assay: Test Example 5: herbicidal effect by foliage application, plastic box (symbol O); details: 320 g/ha, 3 weeks after application
Method in brief: (§3)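 Seeds were sown in sterilized diluvial soil, covered with about 1.5 cm of soil and grown 14 days in a greenhouse at 25° C. to 30° C. An emulsifiable formulation diluted in water to a set rate was sprayed over foliage, and injury was scored 3 weeks later.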

[10] = tested on: Amaranthus retroflexus; assay: Test Example 4: herbicidal effect by soil treatment (symbol N); details: application herbicide amount 320 g/ha
Method in brief: as §1

[11] = tested on: Avena fatua; assay: Test Example 5: herbicidal effect by foliage application, plastic box (symbol I); details: 320 g/ha, 3 weeks after application
Method in brief: as §3

[12] = tested on: Setaria viridis; assay: Test Example 5: herbicidal effect by foliage application, plastic box (symbol G); details: 320 g/ha, 3 weeks after application
Method in brief: as §3

[13] = tested on: Veronica persica; assay: Test Example 4: herbicidal effect by soil treatment (symbol R); details: application herbicide amount 320 g/ha
Method in brief: as §1

SMILES | Herbicidal effect grade, C: Monochoria vaginalis [1] | O (Chenopodium album) herbicidal effect grade [2] | G (Setaria viridis) herbicidal effect grade [3] | P (Stellaria media) herbicidal effect grade [4] | L (Apera spica-venti) herbicidal effect grade [5] | b: directly sowed rice plant, effect on crop grade [6] | Herbicidal effect grade, A: Echinochloa oryzacola Vasing. [7] | f: beet, effect on crop grade [8] | O: Chenopodium album, herbicidal effect grade [9] | N (Amaranthus retroflexus) herbicidal effect grade [10] | I: Avena fatua, herbicidal effect grade [11] | G: Setaria viridis, herbicidal effect grade [12] | R (Veronica persica) herbicidal effect grade [13] | also measured
COCCOC1=C(c2c(C)cc(C)cc2C)C(=O)C(CC(C)=NOC)C1 (centres unmarked) [1-037] | 0 (Herbicidal ratio of 5% or lower (almost no effect)) | 0 (Herbicidal ratio of 5% or lower (almost no effect)) | 0 (Herbicidal ratio of 5% or lower (almost no effect)) | 0 (Herbicidal ratio of 5% or lower (almost no effect)) | 0 (Herbicidal ratio of 5% or lower (almost no effect)) | 0 (Herbicidal ratio of 5% or lower (almost no effect)) | 0 (Herbicidal ratio of 5% or lower (almost no effect)) | 0 (Herbicidal ratio of 5% or lower (almost no effect)) | 0 (Herbicidal ratio of 5% or lower (almost no effect)) | 0 (Herbicidal ratio of 5% or lower (almost no effect)) | 0 (Herbicidal ratio of 5% or lower (almost no effect)) | 0 (Herbicidal ratio of 5% or lower (almost no effect)) |  | 
CON=C(C)CC1CC(OC(=O)C(C)Cl)=C(c2c(C)cc(C)cc2C)C1=O (centres unmarked) [1-042] | 4 (Herbicidal ratio of 70% or higher and lower than 90%) | 0 (Herbicidal ratio of 5% or lower (almost no effect)) | 5 (Herbicidal ratio of 90% or more (almost completely withered)) | 0 (Herbicidal ratio of 5% or lower (almost no effect)) | 5 (Herbicidal ratio of 90% or more (almost completely withered)) | 5 (Herbicidal ratio of 90% or more (almost completely withered)) | 5 (Herbicidal ratio of 90% or more (almost completely withered)) | 1 (Herbicidal ratio of 5% or higher and lower than 20%) | 0 (Herbicidal ratio of 5% or lower (almost no effect)) | 4 (Herbicidal ratio of 70% or higher and lower than 90%) | 5 (Herbicidal ratio of 90% or more (almost completely withered)) | 5 (Herbicidal ratio of 90% or more (almost completely withered)) |  | 
CCCCCCCON=C(C)CC1CC(O)=C(c2c(C)cc(C)cc2C)C1=O (centres unmarked) [1-054] | 0 (Herbicidal ratio of 5% or lower (almost no effect)) | 0 (Herbicidal ratio of 5% or lower (almost no effect)) | 5 (Herbicidal ratio of 90% or more (almost completely withered)) | 0 (Herbicidal ratio of 5% or lower (almost no effect)) | 1 (Herbicidal ratio of 5% or higher and lower than 20%) | 4 (Herbicidal ratio of 70% or higher and lower than 90%) | 3 (Herbicidal ratio of 40% or higher and lower than 70%) | 0 (Herbicidal ratio of 5% or lower (almost no effect)) | 0 (Herbicidal ratio of 5% or lower (almost no effect)) | 0 (Herbicidal ratio of 5% or lower (almost no effect)) | 3 (Herbicidal ratio of 40% or higher and lower than 70%) | 3 (Herbicidal ratio of 40% or higher and lower than 70%) | 0 (Herbicidal ratio of 5% or lower (almost no effect)) | 
CC(CC1CC(O)=C(c2c(C)cc(C)cc2C)C1=O)=NOCC[Si](C)(C)C (centres unmarked) [1-055] | 0 (Herbicidal ratio of 5% or lower (almost no effect)) | 0 (Herbicidal ratio of 5% or lower (almost no effect)) | 4 (Herbicidal ratio of 70% or higher and lower than 90%) | 0 (Herbicidal ratio of 5% or lower (almost no effect)) | 2 (Herbicidal ratio of 20% or higher and lower than 40%) | 5 (Herbicidal ratio of 90% or more (almost completely withered)) | 2 (Herbicidal ratio of 20% or higher and lower than 40%) | 0 (Herbicidal ratio of 5% or lower (almost no effect)) | 1 (Herbicidal ratio of 5% or higher and lower than 20%) | 0 (Herbicidal ratio of 5% or lower (almost no effect)) | 4 (Herbicidal ratio of 70% or higher and lower than 90%) | 3 (Herbicidal ratio of 40% or higher and lower than 70%) | 0 (Herbicidal ratio of 5% or lower (almost no effect)) | 
CON=C(C)CC1CC(OC(=O)C(C)Oc2ccccc2)=C(c2c(C)cc(C)cc2C)C1=O (centres unmarked) [1-060] | 3 (Herbicidal ratio of 40% or higher and lower than 70%) | 0 (Herbicidal ratio of 5% or lower (almost no effect)) | 5 (Herbicidal ratio of 90% or more (almost completely withered)) | 0 (Herbicidal ratio of 5% or lower (almost no effect)) | 5 (Herbicidal ratio of 90% or more (almost completely withered)) | 5 (Herbicidal ratio of 90% or more (almost completely withered)) | 5 (Herbicidal ratio of 90% or more (almost completely withered)) | 0 (Herbicidal ratio of 5% or lower (almost no effect)) | 3 (Herbicidal ratio of 40% or higher and lower than 70%) | 5 (Herbicidal ratio of 90% or more (almost completely withered)) | 5 (Herbicidal ratio of 90% or more (almost completely withered)) | 5 (Herbicidal ratio of 90% or more (almost completely withered)) | 0 (Herbicidal ratio of 5% or lower (almost no effect)) | 
CON=C(C)CC1CC(OC(=O)COc2ccc(Cl)cc2Cl)=C(c2c(C)cc(C)cc2C)C1=O (centres unmarked) [1-075] |  | 0 (Herbicidal ratio of 5% or lower (almost no effect)) | 5 (Herbicidal ratio of 90% or more (almost completely withered)) | 0 (Herbicidal ratio of 5% or lower (almost no effect)) | 5 (Herbicidal ratio of 90% or more (almost completely withered)) |  | 5 (Herbicidal ratio of 90% or more (almost completely withered)) |  |  | 5 (Herbicidal ratio of 90% or more (almost completely withered)) |  |  |  | b: directly sowed rice plant, effect on crop (criteria 0-5) [6]: 5 (Herbicidal ratio of 90% or more (almost completely withered)); I: Avena fatua, herbicidal effect (criteria 0-5) [11]: 5 (Herbicidal ratio of 90% or more (almost completely withered)); G: Setaria viridis, herbicidal effect (criteria 0-5) [12]: 5 (Herbicidal ratio of 90% or more (almost completely withered))
CC(=O)CC1CC(O)=C(c2c(C)cc(-c3ccc(OC(F)(F)F)cc3)cc2C)C1=O (centres unmarked) [7-016] |  |  |  |  |  |  |  |  |  |  |  |  |  | Herbicidal effect grade, O: Chenopodium album [2]: 0 (Herbicidal ratio of 5% or lower (almost no effect)); Herbicidal effect grade, G: Setaria viridis [3]: 2 (Herbicidal ratio of 20% or higher and lower than 40%); Herbicidal effect grade, P: Stellaria media [4]: 0 (Herbicidal ratio of 5% or lower (almost no effect)); Herbicidal effect grade, L: Apera spica-venti [5]: 0 (Herbicidal ratio of 5% or lower (almost no effect)); b: directly sowed rice plant, effect on crop (criteria of Test Example 1) [6]: 0 (Herbicidal ratio of 5% or lower (almost no effect)); f: beet, effect on crop (criteria of Test Example 1) [8]: 0 (Herbicidal ratio of 5% or lower (almost no effect)); O: Chenopodium album, herbicidal effect (criteria of Test Example 1) [9]: 0 (Herbicidal ratio of 5% or lower (almost no effect)); Herbicidal effect grade, N: Amaranthus retroflexus [10]: 0 (Herbicidal ratio of 5% or lower (almost no effect)); I: Avena fatua, herbicidal effect (criteria of Test Example 1) [11]: 0 (Herbicidal ratio of 5% or lower (almost no effect)); Herbicidal effect grade, R: Veronica persica [13]: 0 (Herbicidal ratio of 5% or lower (almost no effect)); G: Setaria viridis, herbicidal effect (criteria of Test Example 1) [12]: 1 (Herbicidal ratio of 5% or higher and lower than 20%)
